Results reported in patent US10624887B2, “Compositions of (-)-17-(cyclobutylmethyl)morphinan-3,14,-diol” (priority 2010, dated 2020).
Read-outs that look alike come from different tables or passages of the source.

How the values were obtained:
nociception in rats = experiment: Eddy's hot plate test; assay type: in vivo, Wistar rats; conditions: butorphanol 1 mg/kg
Description: Heat is often used as a noxious stimulus in models of pain. Typically, the latency of the rat's response to the thermal stimulus is recorded as the dependent variable. To determine whether a test compound has analgesic properties, the latency responses of treated and control rats are evaluated. […] The latency of response will vary depending on the type of heat stimulus used. In the hot-plate assay, the rat is placed on a heated surface and the latency for the rat to respond to the stimulus, by licking its paw or jumping, is recorded. […]
Three groups were employed in the present study with each group comprising of 8 animals. […] Hot plate latency was assessed at 0, 30, 45 and 60 minutes after administration of the butorphanol. Area under the curve was calculated using a graph between % MPE and time. Area under the curve was employed as a quantitative measure of the analgesic effect of the treatments.
Nociceptive threshold was measured with the Eddy's hot plate test. […] Reaction time is expressed as a percentage of the maximum possible effect (MPE): […]
The anti-nociceptive effect following intragastric, intra-ileal and intra-colonic administration was assessed in terms of area under the curve calculated from a graph having time (relative to dosing time point) on the x-axis and percent maximum possible effect (% MPE) on the y-axis. The results were expressed as mean±standard error of means (S.E.M.). […]

[1] = system: paclitaxel induced painful neuropathy; experiment: Paclitaxel induced painful neuropathy, cold allodynia (acetone drop test); assay type: in vivo, Wistar rats; conditions: paclitaxel neuropathic rats
Text: The aim of this study was to evaluate the effect of oral administration of butorphanol in rats with paclitaxel induced painful neuropathy. The primary measurements were made mechanical and thermal allodynia designed to detect effects of the treatment(s) on neuropathic pain.
Wistar rats weighing 250±20 g were maintained on standard laboratory diet and having free access to tap water ad lib were employed in the present study. They were housed in the animal house and were exposed to 12 hr cycle of light and dark. The experiments were conducted in a semi-sound proof laboratory. Care of the animals was in accordance with guidelines for experimentation on animals.
Rats were injected on five alternate days (day 4, 6, 8, 10 & 12) with paclitaxel (2 mg/kg i.p.) using an injection volume of 2 ml/kg. Thus, the cumulative dose of paclitaxel was computed to be 10 mg/kg. Tests took place ten days after the last injection and continued over the next three weeks. […]
For the assessment of cold allodynia, which was stable for 3 weeks, the rats were placed on a wire mesh covered with a plastic dome and were allowed to habituate until the exploratory behavior diminished. Cold allodynia was measured as the number of foot withdrawal responses after application of stimuli to the plantar surface of the paw. […] Acetone was applied two times (once every 5 min) on the left paw, and the number of reactions (shaking, tapping, or licking) was counted during 30 sec. […] The score was expressed as accumulated numbers of reactions over the trials and determined before and 30 and 60 min after administration of the test drugs. Each individual test was expressed as a percentage of maximum possible effect (% MPE): […]
MPE (%) at 30 min time point was employed as a quantitative measure of the analgesic effect of the test drugs.
The anti-nociceptive effect was plotted assessed having time (relative to dosing time point) on the x-axis and percent maximum possible effect (% MPE) on the y-axis. The results were expressed as mean±standard error of means (S.E.M.). […]

opioid receptors = conditions: cited from earlier work
[2] = cited from earlier work; for duration of analgesic effect (median time to requesting rescue analgesia): acute postsurgical pain
[3] = cited from earlier work

For `Oc1ccc2c(c1)[C@@]13CCCC[C@@]1(O)[C@@H](C2)N(CC1CCC1)CC3` [butorphanol, (−)17-(Cyclobutylmethyl)morphinan-3,14-diol], the “antinociceptive effect (area under the curve of % MPE vs time), intra-colonic versus intra-gastric or intra-ileal” value (nociception in rats; hot plate, FIG. 14) was “significantly greater antinociceptive effect”, the hot plate latency (nociception in rats; intra-gastric, intra-ileal and intra-colonic administration, each, rats) was “significant increase” and the “cold allodynia withdrawal threshold in comparison to the control readings” value ([1]; oral) was “significant increase”. For the same molecule, the “time of peak effect post-administration (cold allodynia)” value ([1]; oral) was 30 min, the cold allodynia score ([1]; p.o. 0.01, 0.03, 0.1, 0.3 mg/kg, FIG. 18) was “dose dependent decrease” and the “activity at opioid receptors” value (opioid receptors) was “partial agonist”. For the same molecule, the “duration of analgesic effect (median time to requesting rescue analgesia)” value ([2]; 1 mg intranasal dose) was “less than 2 hours”, the “subjects requiring rescue analgesia during the first 6 hours of observation” value ([2]; 1 mg intranasal dose) was “about 90%” and the “duration of analgesic effect (median time to requesting rescue analgesia)” value ([2]; 2 mg intranasal dose) was “less than 2 hours”. The “subjects requiring rescue analgesia during the first 6 hours of observation” value ([2]; 2 mg intranasal dose) was “about 80%”, the mean half-life ([3]; in vivo) was “about 5 hours” and the oral bioavailability ([3]; widely reported) was “poor”.
